Assay results taken from publication PMC10344949, “Arachidonic acid reverses cholesterol and zinc inhibition of human voltage-gated proton channels” (The Journal of Biological Chemistry, 2023).

Molecular target: T1, hHv1 (human voltage-gated proton channel) (Homo sapiens, UniProt Q96D96)
T1 construct: gene HVCN1; no truncation stated
T1 sequence (Q96D96 1-273): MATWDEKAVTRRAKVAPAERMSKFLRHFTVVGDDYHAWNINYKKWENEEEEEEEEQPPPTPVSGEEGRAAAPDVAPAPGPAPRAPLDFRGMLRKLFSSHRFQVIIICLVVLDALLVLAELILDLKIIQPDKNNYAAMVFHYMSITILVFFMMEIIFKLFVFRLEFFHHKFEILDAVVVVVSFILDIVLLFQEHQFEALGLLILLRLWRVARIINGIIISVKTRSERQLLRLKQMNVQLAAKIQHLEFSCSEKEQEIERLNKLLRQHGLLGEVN
Assay: liposome proton flux assay (ACMA quenching), Hill fit
Format: biochemical
Conditions: read-out: half activation concentration (Kd)

## CCCCC/C=C\C/C=C\C/C=C\C/C=C\CCCC(=O)O [arachidonic acid]
  EC50: 7.2 µM
